Experimental data published in publication PMC9611977 (Toxins, 2022).
Bridge positions count the residues as written; N and C are the ends. Ends that are not written are not given here.

Assays:
[1] = system: muscle α1β1δε nAChR; design: method as in PMID 16571968; details: read-out: EC50 of ACh for α1β1δε; cited from earlier work
[2] = molecular target: T1, rat ASIC3 (Rattus norvegicus, UniProt O35240); experiment: two-electrode voltage clamp on rASIC3 expressed in X. laevis oocytes; type: cell-based
T1 construct: expressed in transfected cells; host or cells: Xenopus laevis oocytes (cRNA injection)
T1 sequence (O35240 1-533): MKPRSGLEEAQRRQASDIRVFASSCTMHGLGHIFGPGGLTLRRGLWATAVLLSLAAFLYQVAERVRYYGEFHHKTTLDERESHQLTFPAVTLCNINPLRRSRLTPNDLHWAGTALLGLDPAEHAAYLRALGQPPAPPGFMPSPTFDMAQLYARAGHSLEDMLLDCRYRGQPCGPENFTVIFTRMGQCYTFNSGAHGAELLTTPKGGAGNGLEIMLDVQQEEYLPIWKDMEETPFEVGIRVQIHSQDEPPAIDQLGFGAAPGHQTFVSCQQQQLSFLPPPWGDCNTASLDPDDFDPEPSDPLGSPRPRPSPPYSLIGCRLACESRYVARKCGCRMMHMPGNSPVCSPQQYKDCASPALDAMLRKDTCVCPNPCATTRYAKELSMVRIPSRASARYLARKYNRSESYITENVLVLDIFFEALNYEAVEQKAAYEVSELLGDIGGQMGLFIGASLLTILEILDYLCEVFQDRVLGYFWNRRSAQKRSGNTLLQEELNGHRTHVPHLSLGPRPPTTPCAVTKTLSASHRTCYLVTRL
Protocol: (§1) Rat ASIC1a and ASIC3 channels were expressed in X. laevis oocytes after injection of 2.5–10 ng of cRNA, as previously described. After injection oocytes were kept for 2–3 days at 19 °C and then up to 5 days at the temperature of 15–16 °C in sterile ND96 medium (96 mM NaCl, 2 mM KCl, 1.8 mM CaCl2, 1 mM MgCl2, 5 mM HEPES titrated to pH 7.4 with NaOH supplemented with 50 μg/mL of gentamycin). Two-electrode voltage clamp recordings were performed using GeneClamp 500 amplifier (Axon Instruments, Burlingame, CA, USA). The data were filtered at 50 Hz and digitized at 1000 Hz by an AD converter L780 (LCard, Moscow, Russia) using in-house software (Moscow). The solutions were applied to a cell chamber (volume 50 μL). The laminar flow of an external solution of ND96 (pH 7.4) was used at a rate of 1 mL/min. ASIC1a and ASIC3 were activated by a short (1 s) application of a solution with a pH 5.5 (10 mM MES) using a fast application system. Peptides were applied 15 s before the activation pulse in a solution containing 0.1% BSA. A value of currents inhibition was calculated as the ratio of the peak current amplitude, when the peptide was applied to the average amplitude of the control peak currents before and after the peptide application and expressed as a percentage. To construct the concentration-response curves, a logistic equation was the following: y = ((1 − A)/(1 + ([C]/IC50)^nH)) + A; where y is the relative value of current inhibition; C is the peptide concentration; IC50 is the half maximal inhibitory concentration; nH is the Hill coefficient; A is an amplitude of maximum inhibition (% of control).

[3] = system: rat ASIC1a; experiment: two-electrode voltage clamp on rASIC1a expressed in X. laevis oocytes; type: cell-based; details: maximal applied concentration 100 μM; pH drop 7.4 to 5.5
Protocol: as §1, with “To construct the concentration-response curves, a logistic equation was the following: y = ((1 − A)/(1 + ([C]/IC50)^nH)) + A; where y is the relative value of current inhibition; C is the peptide concentration; IC50 is the half maximal inhibitory concentration; nH is the Hill coefficient; A is an amplitude of maximum inhibition (% of control).” left out

Compound: CC(=O)OCC[N+](C)(C)C [ACh, acetylcholine]
- EC50 [1]: ~5 µM

Compound: GTPCKCLGYTGVYWFMITRCPNGHGYNLSCPYFLGVCCVKK (disulfide 4-37, 6-30, 20-38) [Hmg 1b-5]
- IC50 [2]: 13.8 ± 0.6 µM
- maximal inhibitory effect on rASIC3 acid-induced current ([2]; 100 μM peptide, pH drop 7.4 to 5.5): about 78%
- Hill coefficient nH, rASIC3 inhibition ([2]; logistic fit, n = 5): 1.22 ± 0.04
- Iminimal, rASIC3 concentration-response fit ([2]; logistic fit, n = 5, amplitude of maximum inhibition (% of control)): 22.4 ± 1.3
- inhibition of rASIC1a current [3]: 17%
